Reference: PMC3914206

Experiments:
Format in all cases: binding
Settings in all cases: Compound Concentration 10 µM
panel of 442 kinases [1] = biological target: T1, panel of 442 kinases (Homo sapiens, UniProt P53355)
T1 construct: purchased KINOMEscan
Excerpt: (§1) We assessed the selectivity of members of this scaffold using the KINOMEscan methodology across a near comprehensive panel of 442 kinases [[18,27]].

panel of 442 kinases [2] = biological target: T2, panel of 442 kinases (Homo sapiens, UniProt Q99759)
T2 construct: purchased KINOMEscan
T2 sequence (Q99759 1-626): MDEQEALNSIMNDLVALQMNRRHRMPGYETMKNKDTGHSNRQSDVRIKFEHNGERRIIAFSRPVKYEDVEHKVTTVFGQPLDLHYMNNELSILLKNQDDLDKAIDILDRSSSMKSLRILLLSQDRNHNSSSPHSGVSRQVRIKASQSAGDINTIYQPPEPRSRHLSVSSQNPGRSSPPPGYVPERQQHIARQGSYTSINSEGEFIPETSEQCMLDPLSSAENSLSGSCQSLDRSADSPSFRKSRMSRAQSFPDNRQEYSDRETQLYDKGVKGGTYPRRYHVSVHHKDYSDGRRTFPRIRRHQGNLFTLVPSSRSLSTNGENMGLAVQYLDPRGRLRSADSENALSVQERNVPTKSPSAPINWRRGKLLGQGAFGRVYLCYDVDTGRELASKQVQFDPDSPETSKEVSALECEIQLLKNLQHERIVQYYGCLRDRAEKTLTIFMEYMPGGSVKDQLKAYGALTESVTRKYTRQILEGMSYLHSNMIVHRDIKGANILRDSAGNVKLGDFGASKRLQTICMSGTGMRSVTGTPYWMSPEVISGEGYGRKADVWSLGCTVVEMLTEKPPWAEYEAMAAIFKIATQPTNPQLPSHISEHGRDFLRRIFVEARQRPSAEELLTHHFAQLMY
Excerpt: as §1

panel of 442 kinases [3] = biological target: T3, panel of 442 kinases (Homo sapiens, UniProt P48729)
T3 construct: purchased KINOMEscan
Excerpt: as §1

T1 sequence (P53355 whole entry): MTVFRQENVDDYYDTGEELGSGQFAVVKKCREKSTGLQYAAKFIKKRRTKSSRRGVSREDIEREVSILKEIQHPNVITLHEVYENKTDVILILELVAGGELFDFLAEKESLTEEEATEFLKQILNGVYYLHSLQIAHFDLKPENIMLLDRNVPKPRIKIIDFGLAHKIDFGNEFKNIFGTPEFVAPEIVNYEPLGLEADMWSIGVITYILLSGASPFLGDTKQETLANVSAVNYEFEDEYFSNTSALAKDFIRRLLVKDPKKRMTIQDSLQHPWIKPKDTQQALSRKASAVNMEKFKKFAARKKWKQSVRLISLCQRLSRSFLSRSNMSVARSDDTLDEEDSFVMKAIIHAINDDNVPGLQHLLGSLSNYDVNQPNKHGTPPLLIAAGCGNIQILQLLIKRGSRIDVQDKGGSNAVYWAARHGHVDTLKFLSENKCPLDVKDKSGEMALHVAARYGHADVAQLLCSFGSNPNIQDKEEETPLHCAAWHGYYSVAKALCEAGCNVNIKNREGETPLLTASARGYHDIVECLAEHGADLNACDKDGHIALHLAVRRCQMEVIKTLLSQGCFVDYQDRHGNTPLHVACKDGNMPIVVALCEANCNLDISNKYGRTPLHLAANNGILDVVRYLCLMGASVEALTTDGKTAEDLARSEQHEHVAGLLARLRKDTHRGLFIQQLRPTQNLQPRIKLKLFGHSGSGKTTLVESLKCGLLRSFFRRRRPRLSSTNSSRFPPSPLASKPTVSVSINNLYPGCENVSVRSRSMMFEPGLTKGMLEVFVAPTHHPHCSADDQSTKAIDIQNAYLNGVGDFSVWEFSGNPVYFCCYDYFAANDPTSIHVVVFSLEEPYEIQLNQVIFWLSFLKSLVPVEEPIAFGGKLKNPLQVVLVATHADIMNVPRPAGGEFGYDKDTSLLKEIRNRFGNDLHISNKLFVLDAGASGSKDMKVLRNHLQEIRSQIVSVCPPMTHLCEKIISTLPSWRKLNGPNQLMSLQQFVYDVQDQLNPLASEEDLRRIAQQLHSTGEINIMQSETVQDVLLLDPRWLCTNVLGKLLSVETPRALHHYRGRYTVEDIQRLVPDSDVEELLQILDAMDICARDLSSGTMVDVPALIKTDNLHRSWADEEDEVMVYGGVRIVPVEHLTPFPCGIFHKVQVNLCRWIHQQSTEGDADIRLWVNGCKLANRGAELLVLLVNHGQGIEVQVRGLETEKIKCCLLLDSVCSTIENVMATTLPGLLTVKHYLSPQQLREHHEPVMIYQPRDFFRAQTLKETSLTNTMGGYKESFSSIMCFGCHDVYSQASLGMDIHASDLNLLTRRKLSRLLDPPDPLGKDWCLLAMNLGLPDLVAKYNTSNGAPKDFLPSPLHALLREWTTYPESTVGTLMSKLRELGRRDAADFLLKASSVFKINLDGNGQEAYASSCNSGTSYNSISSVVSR
T3 sequence (P48729 whole entry): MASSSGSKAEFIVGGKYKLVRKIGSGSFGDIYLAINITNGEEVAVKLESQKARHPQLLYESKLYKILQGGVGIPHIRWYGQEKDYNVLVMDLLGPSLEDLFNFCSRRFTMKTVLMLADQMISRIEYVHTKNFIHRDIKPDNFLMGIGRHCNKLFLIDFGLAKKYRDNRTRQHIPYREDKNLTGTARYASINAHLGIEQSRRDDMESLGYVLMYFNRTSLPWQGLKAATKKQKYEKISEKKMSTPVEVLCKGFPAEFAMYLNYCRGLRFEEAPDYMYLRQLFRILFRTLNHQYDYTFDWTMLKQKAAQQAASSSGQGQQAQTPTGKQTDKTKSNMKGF

Structure (SMILES) | KINOMEscan: DAPK1 (panel of 442 kinases [1]) | KINOMEscan: MAP3K3 (panel of 442 kinases [2]) | KINOMEscan: CSNK1A1 (panel of 442 kinases [3])
COc1cc(C(=O)N2CCC(N3CCN(C)CC3)CC2)ccc1Nc1ncc2c(n1)N1CCc3cccc(c31)C(=O)N2C [Compound 24] | 19 | 98 | 
CCOc1cc(C(=O)N2CCC(N3CCN(C)CC3)CC2)ccc1Nc1ncc2c(n1)N(C1CCCC1)c1ccccc1C(=O)N2C [Compound 26] | 100 | 100 | 100
COc1cc(C(=O)N2CCC(N3CCN(C)CC3)CC2)ccc1Nc1ncc2c(n1)N(C1CCCC1)c1ccccc1C(=O)N2C [Compound 25, 11-cyclopentyl-2-((2-methoxy-4-(4-(4-methylpiperazin-1-yl)piperidine-1-carbonyl)phenyl)amino)-5-methyl-5H-benzo[e]pyrimido[5,4-b][1,4]diazepin-6(11H)-one] | 77 | 100 | 100
COc1cc(C(=O)N2CCC(N3CCN(C)CC3)CC2)ccc1Nc1ncc2c(n1)N(C)c1ccccc1C(=O)N2C [15 (LRRK2-IN-1)] | 73 | 97 | 100
